Activity calls are given as the source filed them. No cut-off for these calls is given here.
What was measured:
[1] = Toxicity in NOD-SCID mouse xenografted with human KG-1 cells assessed as effect on LDL level at 5 mg/kg, ip qd administered 5 consecutive days per week for 24 days; type: organism-based; conditions: in vivo, 576 h, time 24 day
[2] = Toxicity in NOD-SCID mouse xenografted with human KG-1 cells assessed as effect on BILT level at 5 mg/kg, ip qd administered 5 consecutive days per week for 24 days; type: organism-based; conditions: in vivo, 576 h, time 24 day
Cytochrome P450 2C9 = Cytochrome P450 2C9 (Homo sapiens, UniProt P11712); experiment: Inhibition of CYP2C9 in human liver microsomes incubated for 10 mins in presence of NADPH by LC/MS/MS analysis; type: ADME, Microsome
[3] = Acute toxicity in BALB/c mouse assessed as effect on WBC level at 68 mg/kg, ip measured on day 14; type: organism-based; conditions: in vivo, 336 h, time 14 day
HCT-116 [4] = experiment: Induction of mitochondrial dysfunction in human HCT-116 cells assessed as attenuation of basal oxygen consumption incubated for 24 hrs by Seahorse XFe24 analyzer; type: functional, cell-based; conditions: dose 2-10 nM
[5] = Toxicity in NOD-SCID mouse xenografted with human KG-1 cells assessed as effect on PLT level at 5 mg/kg, ip qd administered 5 consecutive days per week for 24 days; type: organism-based; conditions: in vivo, 576 h, time 24 day
[6] = Toxicity in NOD-SCID mouse xenografted with human KG-1 cells assessed as effect on ALB level at 5 mg/kg, ip qd administered 5 consecutive days per week for 24 days; type: organism-based; conditions: in vivo, 576 h, time 24 day
[7] = Acute toxicity in BALB/c mouse assessed as effect on ALB level at 68 mg/kg, ip measured on day 14; type: organism-based; conditions: in vivo, 336 h, time 14 day
[8] = Acute toxicity in BALB/c mouse assessed as animal death at 116 mg/kg, ip measured on day 14; type: organism-based; conditions: in vivo, time 14 day, read-out: Activity
Cytochrome P450 3A4 = Cytochrome P450 3A4 (Homo sapiens, UniProt P08684); experiment: Inhibition of CYP3A4 in human liver microsomes incubated for 5 mins in presence of NADPH by LC/MS/MS analysis; type: ADME, Microsome
[9] = Toxicity in NOD-SCID mouse xenografted with human KG-1 cells assessed as effect on ALT level at 5 mg/kg, ip qd administered 5 consecutive days per week for 24 days; type: organism-based; conditions: in vivo, 576 h, time 24 day
[10] = Efflux ratio of apparent permeability across basolateral to apical membrane to apical to basolateral membrane in human Caco-2 cells incubated for 120 mins by LC-MS/MS analysis; type: ADME, cell-based
[11] = Toxicity in NOD-SCID mouse xenografted with human KG-1 cells assessed as effect on TP level at 5 mg/kg, ip qd administered 5 consecutive days per week for 24 days; type: organism-based; conditions: in vivo, 576 h, time 24 day
HCT-116 [12] = experiment: Induction of ROS generation in human HCT-116 cells at 0.5 nM measured for 30 mins by DCFDA-staining based flow cytometry analysis; type: functional, cell-based
HCT-116 [13] = experiment: Antiproliferative activity against human HCT-116 cells assessed as inhibition of cell growth at 0.1 nM incubated for 96 hrs in presence of galactose by MTT assay; type: functional, cell-based
[14] = Toxicity in NOD-SCID mouse xenografted with human KG-1 cells assessed as effect on MCHC level at 5 mg/kg, ip qd administered 5 consecutive days per week for 24 days; type: organism-based; conditions: in vivo, 576 h, time 24 day
[15] = Acute toxicity in BALB/c mouse assessed as effect on PLT level at 68 mg/kg, ip measured on day 14; type: organism-based; conditions: in vivo, 336 h, time 14 day
[16] = Toxicity in NOD-SCID mouse xenografted with human KG-1 cells assessed as effect on kidney damage at 5 mg/kg, ip qd administered 5 consecutive days per week for 24 days by H and E staining based analysis; type: organism-based; conditions: in vivo, 576 h, time 24 day
HCT-116 [17] = experiment: Induction of mitochondrial dysfunction in human HCT-116 cells assessed as increase in extracellular acidification rate at 2 to 10 nM incubated for 24 hrs by Seahorse XFe24 analyzer; type: functional, cell-based; conditions: dose 2-10 nM
[18] = Toxicity in NOD-SCID mouse xenografted with human KG-1 cells assessed as effect on CHO2 level at 5 mg/kg, ip qd administered 5 consecutive days per week for 24 days; type: organism-based; conditions: in vivo, 576 h, time 24 day
[19] = Toxicity in NOD-SCID mouse xenografted with human KG-1 cells assessed as effect on RDV at 5 mg/kg, ip qd administered 5 consecutive days per week for 24 days; type: organism-based; conditions: in vivo, 576 h, time 24 day
[20] = Acute toxicity in BALB/c mouse assessed as effect on BILT level at 68 mg/kg, ip measured on day 14; type: organism-based; conditions: in vivo, 336 h, time 14 day
[21] = Acute toxicity in BALB/c mouse assessed as effect on BUN level at 68 mg/kg, ip measured on day 14; type: organism-based; conditions: in vivo, 336 h, time 14 day
HCT-116 [22] = experiment: Induction of ROS generation in human HCT-116 cells measured for 30 mins by DCFDA-staining based flow cytometry analysis; type: functional, cell-based; conditions: dose <= 0.5 nM
KG-1 [23] = experiment: Induction of ROS generation in human KG-1 cells measured for 30 mins by DCFDA-staining based flow cytometry analysis; type: functional, cell-based; conditions: dose <= 0.5 nM
[24] = Acute toxicity in BALB/c mouse assessed as effect on GLU level at 68 mg/kg, ip measured on day 14; type: organism-based; conditions: in vivo, 336 h, time 14 day
KG-1 [25] = experiment: Antiproliferative activity against human KG-1 cells assessed as inhibition of cell growth incubated for 96 hrs by MTT assay; type: functional, cell-based; conditions: KG-1, 96 h
[26] = Toxicity in NOD-SCID mouse xenografted with human KG-1 cells assessed as effect on HDL level at 5 mg/kg, ip qd administered 5 consecutive days per week for 24 days; type: organism-based; conditions: in vivo, 576 h, time 24 day
HCT-116 [27] = experiment: Induction of mitochondrial dysfunction in human HCT-116 cells assessed as inhibition of OXPHOS at 2 to 10 nM incubated for 24 hrs by Seahorse XFe24 analyzer; type: functional, cell-based; conditions: dose 2-10 nM
HCT-116 [28] = experiment: Antiproliferative activity against human HCT-116 cells assessed as inhibition of cell growth incubated for 96 hrs by MTT assay; type: functional, cell-based; conditions: HCT-116, 96 h
[29] = Acute toxicity in BALB/c mouse assessed as decrease in behavioral activity at 40 mg/kg, ip measured for 24 hrs; type: organism-based; conditions: in vivo
[30] = Toxicity in NOD-SCID mouse xenografted with human KG-1 cells assessed as effect on UA level at 5 mg/kg, ip qd administered 5 consecutive days per week for 24 days; type: organism-based; conditions: in vivo, 576 h, time 24 day
[31] = Acute toxicity in BALB/c mouse assessed as heart damage at 40 to 68 mg/kg, ip measured on day 14 by H and E staining based analysis; type: organism-based; conditions: in vivo, 336 h, dose 40-68 mg/kg, time 14 day
HCT-116 [32] = experiment: Induction of mitochondrial dysfunction in human HCT-116 cells assessed as attenuation of oxygen consumption rate at 10 nM incubated for 24 hrs by Seahorse XFe24 analyzer; type: functional, cell-based
[33] = Toxicity in NOD-SCID mouse xenografted with human KG-1 cells assessed as effect on MCV level at 5 mg/kg, ip qd administered 5 consecutive days per week for 24 days; type: organism-based; conditions: in vivo, 576 h, time 24 day
[34] = Toxicity in NOD-SCID mouse xenografted with human KG-1 cells assessed as effect on UREA level at 5 mg/kg, ip qd administered 5 consecutive days per week for 24 days; type: organism-based; conditions: in vivo, 576 h, time 24 day
[35] = Toxicity in NOD-SCID mouse xenografted with human KG-1 cells assessed as effect on neutrophil count at 5 mg/kg, ip qd administered 5 consecutive days per week for 24 days; type: organism-based; conditions: in vivo, 576 h, time 24 day

Cytochrome P450 3A4, sequence (P08684 whole entry): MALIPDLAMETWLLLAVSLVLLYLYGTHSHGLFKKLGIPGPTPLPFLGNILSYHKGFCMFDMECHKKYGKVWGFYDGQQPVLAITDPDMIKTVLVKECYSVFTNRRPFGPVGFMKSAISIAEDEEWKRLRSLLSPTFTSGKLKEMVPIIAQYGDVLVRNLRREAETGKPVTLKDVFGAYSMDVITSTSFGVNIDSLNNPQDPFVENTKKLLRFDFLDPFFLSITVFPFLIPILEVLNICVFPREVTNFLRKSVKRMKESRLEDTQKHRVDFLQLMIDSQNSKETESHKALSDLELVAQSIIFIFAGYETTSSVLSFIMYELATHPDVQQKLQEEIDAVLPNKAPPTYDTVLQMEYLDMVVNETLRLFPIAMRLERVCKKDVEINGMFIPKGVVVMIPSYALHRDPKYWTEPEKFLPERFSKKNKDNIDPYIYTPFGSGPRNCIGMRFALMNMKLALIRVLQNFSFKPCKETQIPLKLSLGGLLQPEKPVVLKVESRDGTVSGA
Cytochrome P450 2C9, sequence (P11712 whole entry): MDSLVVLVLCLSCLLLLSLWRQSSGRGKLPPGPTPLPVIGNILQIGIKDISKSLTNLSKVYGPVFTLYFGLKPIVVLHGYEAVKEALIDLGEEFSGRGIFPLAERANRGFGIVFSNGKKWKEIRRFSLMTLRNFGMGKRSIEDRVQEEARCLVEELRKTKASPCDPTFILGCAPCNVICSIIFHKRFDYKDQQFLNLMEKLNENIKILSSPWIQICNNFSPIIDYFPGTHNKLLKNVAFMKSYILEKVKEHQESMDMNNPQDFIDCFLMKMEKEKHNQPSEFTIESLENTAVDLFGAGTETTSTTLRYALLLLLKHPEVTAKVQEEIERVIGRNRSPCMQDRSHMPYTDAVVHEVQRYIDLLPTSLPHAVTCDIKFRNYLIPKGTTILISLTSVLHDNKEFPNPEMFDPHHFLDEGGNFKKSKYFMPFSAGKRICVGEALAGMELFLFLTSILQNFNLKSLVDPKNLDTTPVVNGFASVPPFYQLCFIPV

SMILES	Activity [1]	Activity [2]	IC50 (Cytochrome P450 2C9) [nM]	Activity [3]	Activity (HCT-116 [4])	Activity [5]	Activity [6]	Activity [7]	mortality at 336 h [8] [%]	IC50 (Cytochrome P450 3A4) [µM]	Activity [9]	efflux ratio at 2 h [10]	Activity [11]	Activity (HCT-116 [12])	Activity (HCT-116 [13])	Activity [14]	Activity [15]	Activity [16]	Activity (HCT-116 [17])	Activity [18]	further results
Cc1cc(C(=O)Nc2ccc(C(F)(F)F)cc2)nn1Cc1cccc(N2CCN(C(=O)C3CC3)CC2)c1	Non-Toxic	Non-Toxic	1010	Non-Toxic	Dose-Dependent Effect	Non-Toxic	Non-Toxic	Non-Toxic	33.3	7.48	Non-Toxic	0.53	Non-Toxic	Active	Active	Non-Toxic	Non-Toxic	Non-Toxic	Active	Non-Toxic	Activity [19]: Non-Toxic; Activity [20]: Non-Toxic; Activity [21]: Non-Toxic; Activity (HCT-116 [22]): Dose-Dependent Effect; Activity (KG-1 [23]): Dose-Dependent Effect; Activity [24]: Non-Toxic; IC50 (KG-1 [25]): 3.9 nM; Activity [26]: Non-Toxic; Activity (HCT-116 [27]): Active; IC50 (HCT-116 [28]): 0.52 nM; Activity [29]: Non-Toxic; Activity [30]: Non-Toxic; Activity [31]: Non-Toxic; Activity (HCT-116 [32]): Active; Activity [33]: Non-Toxic; Activity [34]: Non-Toxic; Activity [35]: Non-Toxic
Cc1cc(C(=O)Nc2ccc(OC(F)(F)F)cc2)nn1Cc1cccc(N2CCN(C(=O)C3CC3)CC2)c1	Non-Toxic	Non-Toxic	1830	Non-Toxic	Dose-Dependent Effect	Non-Toxic	Non-Toxic	Non-Toxic	33.3	6.99	Non-Toxic	0.57	Non-Toxic	Active	Active	Non-Toxic	Non-Toxic	Non-Toxic	Active	Non-Toxic	Activity [19]: Non-Toxic; Activity [20]: Non-Toxic; Activity [21]: Non-Toxic; Activity (HCT-116 [22]): Dose-Dependent Effect; Activity (KG-1 [23]): Dose-Dependent Effect; Activity [24]: Non-Toxic; IC50 (KG-1 [25]): 5.81 nM; Activity [26]: Non-Toxic; Activity (HCT-116 [27]): Active; IC50 (HCT-116 [28]): 1.02 nM; Activity [29]: Non-Toxic; Activity [30]: Non-Toxic; Activity [31]: Non-Toxic; Activity (HCT-116 [32]): Active; Activity [33]: Non-Toxic; Activity [34]: Non-Toxic; Activity [35]: Non-Toxic
